Where a name gives a salt, the structure may show the parent alone. Where only a bound is given, the exact number is not on record here.

Chain of human LOXL2 (Q9Y4K0 26-774): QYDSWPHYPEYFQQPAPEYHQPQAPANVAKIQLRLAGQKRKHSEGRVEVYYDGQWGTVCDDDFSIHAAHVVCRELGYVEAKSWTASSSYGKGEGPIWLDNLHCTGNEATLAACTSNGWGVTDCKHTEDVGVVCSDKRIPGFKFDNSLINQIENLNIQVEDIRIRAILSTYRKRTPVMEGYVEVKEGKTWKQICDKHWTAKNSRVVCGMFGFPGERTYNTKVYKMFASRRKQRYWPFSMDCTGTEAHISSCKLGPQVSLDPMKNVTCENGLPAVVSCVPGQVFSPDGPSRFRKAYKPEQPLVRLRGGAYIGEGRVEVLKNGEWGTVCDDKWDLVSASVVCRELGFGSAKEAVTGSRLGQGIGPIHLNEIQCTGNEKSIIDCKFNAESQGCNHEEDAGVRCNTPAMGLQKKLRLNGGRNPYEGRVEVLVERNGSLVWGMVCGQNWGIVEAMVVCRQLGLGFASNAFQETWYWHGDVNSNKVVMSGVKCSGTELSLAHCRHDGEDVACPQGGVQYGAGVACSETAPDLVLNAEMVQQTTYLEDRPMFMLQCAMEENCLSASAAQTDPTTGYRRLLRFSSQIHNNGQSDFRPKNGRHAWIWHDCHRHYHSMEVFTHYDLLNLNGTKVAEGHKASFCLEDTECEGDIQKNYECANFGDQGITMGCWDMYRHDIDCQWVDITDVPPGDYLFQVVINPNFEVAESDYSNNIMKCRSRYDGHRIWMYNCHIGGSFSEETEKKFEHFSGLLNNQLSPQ

This experiment has as its target human LOXL2 (Homo sapiens (Human), UniProt Q9Y4K0). In words: Human LOXL2 amine oxidase activity assay (Amplex Red). Type of experiment: biochemical. The note with it: concentrated conditioned media from CHO cells stably expressing human LOXL2; 2 h at 37° C. with compound; DAP substrate. The method, then:
Example B-1: Human LOXL2 Amine Oxidase Activity Assay
LOXL2 amine oxidase activity is evaluated by measuring Amplex Red fluorescence using 10-20× concentrated conditioned media from CHO cells stably expressing human LOXL2. To assay for amine oxidase activity, 10 μL of the concentrated conditioned media is incubated with 2 μL of test compound in DMSO and 73 μL Assay Buffer (50 mM Borate Buffer, pH8) for 2 h at 37° C. After the 2 h incubation, 5 ul of 10 mM 1,5-Diaminopentane (DAP) diluted in Assay Buffer and 10 μl of Amplex Red Mix (8.5 μl Assay Buffer+0.5 μl of 10 mM Amplex Red+1 μl of 500 U/ml Horseradish Peroxidase) are added and the plate mixed and immediately placed on the FlexStaion for fluorescence measurements. Fluorescence is read in kinetic mode every 2 min for 1 hour at excitation=544 and emission=590. The amine oxidase activity is calculated from the slope of the linear portion of the curve.
As usually defined, the IC50 is the midpoint of a concentration-inhibition curve. With `NCc1cc(Oc2cccc(C(=O)NC3(CO)CC3)c2)nc(C(F)(F)F)c1` [Compound 1-31, 3-((4-(Aminomethyl)-6-(trifluoromethyl)pyridin-2-yl)oxy)-N-(1-(hydroxymethyl)cyclopropyl)benzamide hydrochloride], the IC50 was below 300 nM.
To `NCc1cc(O[C@H]2CCCN(C(=O)Nc3ccccc3)C2)nc(C(F)(F)F)c1` [Compound 1-44, (S)-3-((4-(Aminomethyl)-6-(trifluoromethyl)pyridin-2-yl)oxy)-N-phenylpiperidine-1-carboxamide trifluoroacetate] belongs below 300 nM; to `NCc1cc(Oc2cccc(C(=O)N3CC[C@@H](F)C3)c2)nc(C(F)(F)F)c1` [Compound 1-212, (R)-(3-((4-(Aminomethyl)-6-(trifluoromethyl)pyridin-2-yl)oxy)phenyl)(3-fluoropyrrolidin-1-yl)methanone hydrochloride], below 300 nM; to `Cc1cc(=O)n(Cc2cc(CN)cc(C(F)(F)F)n2)c(=O)n1Cc1ccncn1` [Compound 1-243, 3-((4-(Aminomethyl)-6-(trifluoromethyl)pyridin-2-yl)methyl)-6-methyl-1-(pyrimidin-4-ylmethyl)pyrimidine-2,4(1H,3H)-dione hydrochloride], 300 to 1000 nM.
As for `NCc1cc(O[C@H]2CCCN(C(=O)c3cncnc3)C2)nc(C(F)(F)F)c1` [Compound 1-50, (S)-(3-((4-(Aminomethyl)-6-(trifluoromethyl)pyridin-2-yl)oxy)piperidin-1-yl)(pyrimidin-5-yl)methanone trifluoroacetate], the figure is below 300 nM.
Consider `C#C[C@@H](CC(=O)OC)NC(=O)c1cccc(Oc2cc(CN)cc(C(F)(F)F)n2)c1` [Compound 1-222, Methyl (R)-3-(3-((4-(aminomethyl)-6-(trifluoromethyl)pyridin-2-yl)oxy)benzamido)pent-4-ynoate hydrochloride], for which the IC50 was below 300 nM.
As for `Cc1nnc(C(=O)N2CCC[C@H](Oc3cc(CN)cc(C(F)(F)F)n3)C2)o1` [Compound 1-51, (S)-(3-((4-(Aminomethyl)-6-(trifluoromethyl)pyridin-2-yl)oxy)piperidin-1-yl)(5-methyl-1,3,4-oxadiazol-2-yl)methanone trifluoroacetate], the half-inhibitory concentration (IC50) is 300 to 1000 nM.
To `NCc1cc(OC[C@H]2CCCN(C(=O)Nc3ccccc3)C2)nc(C(F)(F)F)c1` [Compound 1-45, (S)-3-(((4-(Aminomethyl)-6-(trifluoromethyl)pyridin-2-yl)oxy)methyl)-N-phenylpiperidine-1-carboxamide trifluoroacetate] belongs 300 to 1000 nM; to `NCc1cc(-c2cccnc2)nc(C(F)(F)F)c1` [Compound 1-1, (6-(Trifluoromethyl)-[2,3′-bipyridin]-4-yl)methanamine trifluoroacetate], below 300 nM; to `C#C[C@@H](CC(=O)O)NC(=O)c1cccc(Oc2cc(CN)cc(C(F)(F)F)n2)c1` [Compound 1-223, (R)-3-(3-((4-(aminomethyl)-6-(trifluoromethyl)pyridin-2-yl)oxy)benzamido)pent-4-ynoic acid hydrochloride], 300 to 1000 nM.
`C#C[C@H](CC(=O)OC)NC(=O)c1cccc(Oc2cc(CN)cc(C(F)(F)F)n2)c1` [Compound 1-220, Methyl (S)-3-(3-((4-(aminomethyl)-6-(trifluoromethyl)pyridin-2-yl)oxy)benzamido)pent-4-ynoate]: the IC50 is below 300 nM.
As for `NCc1cc(Oc2cccc(C(=O)N3CCC(CO)CC3)c2)nc(C(F)(F)F)c1` [Compound 1-204, (3-((4-(Aminomethyl)-6-(trifluoromethyl)pyridin-2-yl)oxy)phenyl)(4-(hydroxymethyl)piperidin-1-yl)methanone hydrochloride], the figure is below 300 nM; as for `NCc1cc(Oc2cccc(C(=O)N3CCc4ccccc4C3)c2)nc(C(F)(F)F)c1` [Compound 1-11, (3-((4-(Aminomethyl)-6-(trifluoromethyl)pyridin-2-yl)oxy)phenyl)(3,4-dihydroisoquinolin-2(1H)-yl)methanone hydrochloride], below 300 nM.

(Values after patent US11072585B2 (PharmAkea, Inc., priority 2015, dated 2021).)
